According to patent publication US9067896B2, “Crystalline forms of 3-(2,6-dichloro-3,5-dimethoxy-phenyl)-1-{6-[4-(4-ethyl-piperazin-1-yl) -phenylamino]-pyrimidin-4-yl}-1-methyl-urea and salts thereof” (Novartis AG, priority 2009, dated 2015):
In brackets after ≈: the same amount, converted by molar mass. Where a name gives a salt, the structure may show the parent alone.

Tests used:
Format in all cases: physicochemical
Solution stability = details: 1 week at 50° C.
Method: The solution stability of the free base was tested in buffers ranging from pH 1 to pH 9 for 1 week at 50° C. At pH 5 and higher, the free base was stable, and after accounting for minor initial impurities, degradation was less than 2%. At pH 3, degradation was about 4% and at pH 1, degradation was about 15%. The stability was also tested in water and several organic solvents (1 week at 50° C.).
Without being bound by mechanism, the stability difference between the free base and phosphate salt may be due to the higher aqueous solubility of the phosphate salt compared to the free base, as well as the tendency of the phosphate salt to cause the pH of water to decrease, which may increase the rate of degradation.

[1] = Determination of solubility (equilibration in solvent, filtrate by HPLC)
Method: Excess free base (free base of Formula I), its phosphate salt (the monophosphoric acid salt of the free base), or another acid salt was equilibrated in solvents for 1 day at 25±0.5° C. The resultant slurry was filtered and the filtrate used for solubility determination by HPLC.
Solubility of the monohydrate of the anhydrous and monohydrate free base was measured in various aqueous media (e.g., pH 6.8 buffer, pH 4.5 buffer, pH 1 buffer), including simulated and actual human fluids.
The human fluids were collected from 12 human subjects.
Solubility studies of the phosphate salt were undertaken in aqueous media and in human fluids at 24 hours.

[2] = Intrinsic dissolution rate; details: 37° C., disc 200 rpm, 290 nm
Method: The intrinsic dissolution rate measurements were carried out in 0.5 cm^2 VanKel punch and die assemblies at a pellet pressure of 2000 pounds. […]
The intrinsic dissolution rate was determined for the phosphate salt in water, pH=6.8 and 0.1N HCl, and for the free base monohydrate in pH=6.8, 4.5 and 0.1N HCl. The measurements were carried out on a VanKel instrument using a Cary UV/VIS spectrophotometer (Table 2).

Compound: CCN1CCN(c2ccc(Nc3cc(N(C)C(=O)Nc4c(Cl)c(OC)cc(OC)c4Cl)ncn3)cc2)CC1 [Free Base, 3-(2,6-Dichloro-3,5-dimethoxy-phenyl)-1-{6-[4-(4-ethyl-piperazin-1-yl)-phenylamino]-pyrimidin-4-yl}-1-methyl-urea]
- degradation in solution (Solution stability; 1:1 acetonitrile/water, listed as free base): about 8%
- degradation in solution (Solution stability; buffer pH 1): about 15%
- degradation in solution (Solution stability; buffer pH 3): about 4%
- degradation in solution (Solution stability; buffers pH 5 and higher): less than 2%
- degradation in solution (Solution stability; isopropanol): stable
- degradation in solution (Solution stability; water, listed as free base): stable
- Solubility in mg/ml after 24 h ([1]; Fasted State Simulated Intestinal Fluid (FaSSIF), listed as Anhydrous Free Base): 0.001 mg/mL (≈ 1.78 µM)
- Solubility in mg/ml after 24 h ([1]; Fed State Simulated Intestinal Fluid (FeSSIF), listed as Anhydrous Free Base): 0.148 mg/mL (≈ 264 µM)
- Solubility in mg/ml after 24 h ([1]; HIF, fed, listed as Anhydrous Free Base): 0.004 mg/mL (≈ 7.14 µM)
- Solubility in mg/ml after 24 h ([1]; Human gastric fluid (HGF), listed as Anhydrous Free Base): 0.001 mg/mL (≈ 1.78 µM)
- Solubility in mg/ml after 24 h ([1]; Human intestinal fluid (HIF) fasted, listed as Anhydrous Free Base): 0.002 mg/mL (≈ 3.57 µM)
- Solubility in mg/ml after 24 h ([1]; Simulated Gastric Fluid (SGF), listed as Anhydrous Free Base): 0.0497 mg/mL (≈ 88.7 µM)
- solubility in common organic solvents (in words) ([1]; listed as anhydrous free base): sparingly to slightly soluble
- Solubility ([1]; initial solubility test, Water): 1 µg/mL (≈ 1.78 µM)
- Solubility ([1]; initial solubility test, pH3 Buffer): 200 µg/mL (≈ 357 µM)
- solubility at 24 h ([1]; pH 1 HCl, 25 °C, pH 1, simulated gastric fluid, thermodynamic from solid, pH 1 HCl, read-out: Solubility in mg/ml after 24 h): 0.052 mg/mL (≈ 92.8 µM)
- Solubility ([1]; pH 6.8 buffer, listed as anhydrous free base): ca. 0.00004 mg/mL
- Solubility in mg/ml after 24 h ([1]; ph 4.5 Acetate, listed as Anhydrous Free Base): 0.008 mg/mL (≈ 14.3 µM)
- Solubility in mg/ml after 24 h ([1]; ph 6.8 Phosphate): <LOQ*
- Solubility ([1]; water (free base: pH 6.67), listed as anhydrous free base): ~0.09 µg/mL (≈ 0.161 µM)
- Intrinsic DR value ([2]; HCl 0.1N, listed as Anhydrous Free Base): 0.28 mg/min/cm^2
- Intrinsic DR value ([2]; Water, listed as Anhydrous Free Base): 0.01 mg/min/cm^2

Compound: CCN1CCN(c2ccc(Nc3cc(N(C)C(=O)Nc4c(Cl)c(OC)cc(OC)c4Cl)ncn3)cc2)CC1 [Phosphate salt (form A)]
- degradation in solution (Solution stability; 1:1 acetonitrile/water, listed as phosphate salt): ~70%
- degradation in solution (Solution stability; acetonitrile, form A): stable
- degradation in solution (Solution stability; methanol, form A): about 8%
- degradation in solution (Solution stability; water, listed as phosphate salt): about 45%
- Solubility in mg/ml after 24 h ([1]; Fasted State Simulated Intestinal Fluid (FaSSIF), listed as Phosphate Salt): 0.003 mg/mL
- Solubility in mg/ml after 24 h ([1]; Fed State Simulated Intestinal Fluid (FeSSIF), listed as Phosphate Salt): 1.067 mg/mL
- Solubility in mg/ml after 24 h ([1]; HIF, fed, listed as Phosphate Salt): 0.00141 mg/mL
- Solubility in mg/ml after 24 h ([1]; Human gastric fluid (HGF), listed as Phosphate Salt): 0.0115 mg/mL
- Solubility in mg/ml after 24 h ([1]; Human intestinal fluid (HIF) fasted, listed as Phosphate Salt): 0.00223 mg/mL
- Solubility in mg/ml after 24 h ([1]; Simulated Gastric Fluid (SGF), listed as Phosphate Salt): 0.088 mg/mL
- solubility in common organic solvents (in words) [1]: sparingly soluble
- Solubility ([1]; initial solubility test, Water, listed as Phosphate): 1700 µg/mL
- Solubility ([1]; initial solubility test, pH3 Buffer, listed as Phosphate): 39 µg/mL
- Solubility in mg/ml after 24 h ([1]; pH 1 HCl, listed as Phosphate Salt): 0.089 mg/mL
- Solubility ([1]; pH 6.8 buffer): ca. 0.00009 mg/mL
- Solubility in mg/ml after 24 h ([1]; ph 4.5 Acetate, listed as Phosphate Salt): 0.731 mg/mL
- Solubility ([1]; water (free base: pH 6.67)): 1300 µg/mL
- Intrinsic DR value ([2]; HCl 0.1N): 1.0661 mg/min/cm^2
- Intrinsic DR value ([2]; Water): 0.3279 mg/min/cm^2
- Intrinsic DR value ([2]; pH = 6.8): 0.0056 mg/min/cm^2
